Measurements: US12162840B2, “Herbicidal compositions” (SYNGENTA PARTICIPATIONS AG, priority 2018, dated 2024)

Tested on: cool season plant species
Test: B2 Post-emergence efficacy Test 2, cool season plant species
Assay type: in vivo
Settings: 15 days after application, 0=no damage, 100=total kill
In short: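 Plants at 12 days post-sowing were sprayed with active ingredient formulated in IF50 plus 0.2% v/v Genapol XO80, then grown in a glasshouse (24/18 °C or 20/16 °C day/night, 16 h light, 65% humidity). Damage scored 15 days after application on 0–100 scale (100 = total kill).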

## Cc1nn(C)c(=O)c(-c2c(F)ccc(Cl)c2CCc2ccccc2C(F)(F)F)c1O [Compound 1.066]
15 g/Ha
  Herbicidal activity (0-100 scale) ALOMY: 20
  Herbicidal activity (0-100 scale) AVEFA: 0
  Herbicidal activity (0-100 scale) BEAVA: 80
  Herbicidal activity (0-100 scale) BROTE: 0
  Herbicidal activity (0-100 scale) BRSNN: 90
  Herbicidal activity (0-100 scale) GALAP: 20
  Herbicidal activity (0-100 scale) HORVW: 0
  Herbicidal activity (0-100 scale) KCHSC: 0
  Herbicidal activity (0-100 scale) LOLPE: 10
  Herbicidal activity (0-100 scale) POAAN: 20
  Herbicidal activity (0-100 scale) POLCO: 70
  Herbicidal activity (0-100 scale) SINAR: 60
  Herbicidal activity (0-100 scale) STEME: 80
  Herbicidal activity (0-100 scale) TRZAW: 0
  Herbicidal activity (0-100 scale) VERPE: 80
30 g/Ha
  Herbicidal activity (0-100 scale) ALOMY: 50
  Herbicidal activity (0-100 scale) AVEFA: 20
  Herbicidal activity (0-100 scale) BEAVA: 80
  Herbicidal activity (0-100 scale) BROTE: 20
  Herbicidal activity (0-100 scale) BRSNN: 90
  Herbicidal activity (0-100 scale) CHEAL: 90
  Herbicidal activity (0-100 scale) GALAP: 20
  Herbicidal activity (0-100 scale) HORVW: 10
  Herbicidal activity (0-100 scale) KCHSC: 0
  Herbicidal activity (0-100 scale) LOLPE: 20
  Herbicidal activity (0-100 scale) POAAN: 70
  Herbicidal activity (0-100 scale) POLCO: 80
  Herbicidal activity (0-100 scale) SINAR: 60
  Herbicidal activity (0-100 scale) STEME: 60
  Herbicidal activity (0-100 scale) TRZAW: 10
  Herbicidal activity (0-100 scale) VERPE: 90
60 g/Ha
  Herbicidal activity (0-100 scale) ALOMY: 70
  Herbicidal activity (0-100 scale) AVEFA: 40
  Herbicidal activity (0-100 scale) BEAVA: 80
  Herbicidal activity (0-100 scale) BROTE: 60
  Herbicidal activity (0-100 scale) BRSNN: 90
  Herbicidal activity (0-100 scale) CHEAL: 90
  Herbicidal activity (0-100 scale) GALAP: 20
  Herbicidal activity (0-100 scale) HORVW: 20
  Herbicidal activity (0-100 scale) KCHSC: 0
  Herbicidal activity (0-100 scale) LOLPE: 80
  Herbicidal activity (0-100 scale) POAAN: 80
  Herbicidal activity (0-100 scale) POLCO: 90
  Herbicidal activity (0-100 scale) SINAR: 80
  Herbicidal activity (0-100 scale) STEME: 90
  Herbicidal activity (0-100 scale) TRZAW: 40
  Herbicidal activity (0-100 scale) VERPE: 100
125 g/Ha
  Herbicidal activity (0-100 scale) ALOMY: 80
  Herbicidal activity (0-100 scale) AVEFA: 90
  Herbicidal activity (0-100 scale) BEAVA: 80
  Herbicidal activity (0-100 scale) BROTE: 70
  Herbicidal activity (0-100 scale) BRSNN: 90
  Herbicidal activity (0-100 scale) CHEAL: 90
  Herbicidal activity (0-100 scale) GALAP: 20
  Herbicidal activity (0-100 scale) HORVW: 70
  Herbicidal activity (0-100 scale) KCHSC: 10
  Herbicidal activity (0-100 scale) LOLPE: 90
  Herbicidal activity (0-100 scale) POAAN: 90
  Herbicidal activity (0-100 scale) POLCO: 90
  Herbicidal activity (0-100 scale) SINAR: 90
  Herbicidal activity (0-100 scale) STEME: 90
  Herbicidal activity (0-100 scale) TRZAW: 60
  Herbicidal activity (0-100 scale) VERPE: 100
250 g/Ha
  Herbicidal activity (0-100 scale) ALOMY: 90
  Herbicidal activity (0-100 scale) AVEFA: 90
  Herbicidal activity (0-100 scale) BEAVA: 80
  Herbicidal activity (0-100 scale) BROTE: 80
  Herbicidal activity (0-100 scale) BRSNN: 90
  Herbicidal activity (0-100 scale) CHEAL: 100
  Herbicidal activity (0-100 scale) GALAP: 30
  Herbicidal activity (0-100 scale) HORVW: 80
  Herbicidal activity (0-100 scale) KCHSC: 20
  Herbicidal activity (0-100 scale) LOLPE: 90
  Herbicidal activity (0-100 scale) POAAN: 90
  Herbicidal activity (0-100 scale) POLCO: 100
  Herbicidal activity (0-100 scale) SINAR: 90
  Herbicidal activity (0-100 scale) STEME: 90
  Herbicidal activity (0-100 scale) TRZAW: 70
  Herbicidal activity (0-100 scale) VERPE: 100
500 g/Ha
  Herbicidal activity (0-100 scale) ALOMY: 90
  Herbicidal activity (0-100 scale) AVEFA: 90
  Herbicidal activity (0-100 scale) BEAVA: 90
  Herbicidal activity (0-100 scale) BROTE: 90
  Herbicidal activity (0-100 scale) BRSNN: 90
  Herbicidal activity (0-100 scale) CHEAL: 100
  Herbicidal activity (0-100 scale) GALAP: 90
  Herbicidal activity (0-100 scale) HORVW: 90
  Herbicidal activity (0-100 scale) KCHSC: 20
  Herbicidal activity (0-100 scale) LOLPE: 100
  Herbicidal activity (0-100 scale) POAAN: 90
  Herbicidal activity (0-100 scale) POLCO: 100
  Herbicidal activity (0-100 scale) SINAR: 90
  Herbicidal activity (0-100 scale) STEME: 100
  Herbicidal activity (0-100 scale) TRZAW: 80
  Herbicidal activity (0-100 scale) VERPE: 100
